According to patent US20230157996A1, “SMALL-MOLECULE INHIBITOR TARGETING EB VIRUS NUCLEAR ANTIGEN PROTEIN, PREPARATION METHOD AND USE THEREOF” (priority 2020, published 2023):
Where two headings read alike, the source gives them in different places.

System: C666-1 cells
Test: C666-1 cell viability single concentration (50 μM) inhibition rate (Resazurin)
Format: cell-based
Details: for inhibition at 50 µM: Homo sapiens, C6661, 72 h, read-out: C666-1 cell viability single concentration (50 μM) inhibition rate, Ratio* (Inh %)
How it was run: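 EBV-positive C666-1 cells (5×10^3/well), pre-cultured 24 h, were exposed to compound at 50 μmol/L final for 72 h at 37° C, 5% CO2, in duplicate. Viability by resazurin (3 h, ex 560/em 590 nm); inhibition rate computed relative to DMSO control and medium-only blank.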

[1] = 50 μM compound, 72 hours, C666-1 cells

| SMILES | inhibition at 50 µM [1] [%] | further results |
| --- | --- | --- |
| COC(=O)c1cccc(N2CC(Oc3cccc(-c4csc(NS(C)(=O)=O)n4)c3)C2)c1-n1cccc1 [Example 288, Methyl 3-(3-(3-(2-(methylsulfonamido)thiazol-4-yl)phenoxy)azetidin-1-yl)-2-(1H-pyrrol-1-yl)benzoate] | < 10 | – |
| COc1ccccc1NC(=O)Nc1ccc(OC2CN(c3cccc(C(=O)O)c3-n3cccc3)C2)cc1 [Example 289, 3-(3-(4-(3-(2-methoxyphenyl)ureido)phenoxy)azetidin-1-yl)2-(1H-pyrrol-1-yl)benzoic acid] | 10 to 30 | – |
| COC(=O)c1cccc(N2CC(Oc3ccc(Oc4ccc(C(F)(F)F)cc4)cc3)C2)c1-n1cccc1 [Example 291, Methyl 3-(3-(4-(4-(trifluoromethyl)phenoxy)phenoxy)azetidin-1-yl)2-(1H-pyrrol-1-yl)benzoate] | < 10 | – |
| COC(=O)c1cccc(N2CC(Oc3ccc(Oc4cccc(C(C)=O)c4)cc3)C2)c1-n1cccc1 [Example 293, Methyl 3-(3-(4-(3-acetylphenoxy)phenoxy)azetidin-1-yl)-2-(1H-pyrrol-1-yl)benzoate] | 10 to 30 | – |
| CC(=O)c1cccc(Oc2ccc(OC3CN(c4cccc(C(=O)O)c4-n4cccc4)C3)cc2)c1 [Example 294, 3-(3-(4-(3-acetylphenoxy)phenoxy)azetidin-1-yl)-2-(1H-pyrrol-1-yl)benzoic acid] | < 10 | – |
| COC(=O)c1cccc(N2CC(Oc3cccc(NC(=O)Nc4ccc(OC(F)(F)F)cc4)c3)C2)c1-n1cccc1 [Example 295, Methyl 3-(3-(3-(3-(4-(trifluoromethoxy)phenyl)ureido)phenoxy)azetidin-1-yl)-2-(1H-pyrrol-1-yl)benzoate] | > 50 | – |
| O=C(Nc1ccc(OC(F)(F)F)cc1)Nc1cccc(OC2CN(c3cccc(C(=O)O)c3-n3cccc3)C2)c1 [Example 296, 3-(3-(3-(3-(4-(trifluoromethoxy)phenyl)ureido)phenoxy)azetidin-1-yl)-2-(1H-pyrrol-1-yl)benzoic acid] | < 10 | – |
| COC(=O)c1cccc(N2CC(Oc3cccc(CO)c3)C2)c1-n1cccc1 [Example 297, Methyl 3-(3-(3-(hydroxymethyl)phenoxy)azetidin-1-yl)-2-(1H-pyrrol-1-yl)benzoate] | 30 to 50 | – |
| O=C(O)c1cccc(N2CC(Oc3cccc(CO)c3)C2)c1-n1cccc1 [Example 298, 3-(3-(3-(hydroxymethyl)phenoxy)azetidin-1-yl)-2-(1H-pyrrol-1-yl)benzoic acid] | < 10 | – |
| COC(=O)c1cccc(N2CC(Oc3ccc(CO)cc3C)C2)c1-n1cccc1 [Example 299, Methyl 3-(3-(4-(hydroxymethyl)-2-methylphenoxy)azetidin-1-yl)-2-(1H-pyrrol-1-yl)benzoate] | > 50 | – |
| Cc1cc(CO)ccc1OC1CN(c2cccc(C(=O)O)c2-n2cccc2)C1 [Example 300, 3-(3-(4-(hydroxymethyl)-2-methylphenoxy)azetidin-1-yl)-2-(1H-pyrrol-1-yl)benzoic acid] | < 10 | – |
| O=C(O)c1cccc(N2CC(Oc3ccc([N+](=O)[O-])cc3)C2)c1-n1cccc1 [Example 301, 3-(3-(4-nitrophenoxy)azetidin-1-yl)-2-(1H-pyrrol-1-yl)benzoic acid] | – | C666-1 cell viability single concentration (50 μM) inhibition rate, Ratio* (Inh %) [1]: ++++ (>50% ++++) |
| CCNC(=O)c1ccc(OC2CN(c3cccc(C(=O)OC)c3-n3cccc3)C2)cc1 [Example 303, Methyl 3-(3-(4-(ethylcarbamoyl)phenoxy)azetidin-1-yl)-2-(1H-pyrrol-1-yl)benzoate] | 10 to 30 | – |
| COC(=O)c1cccc(N2CC(Oc3ccc4c(ccn4S(=O)(=O)c4ccc(C)cc4)c3)C2)c1-n1cccc1 [Example 304, Methyl 3-(3-((1-p-tolylsulfonyl-1H-indol-5-yl)oxy)azetidin-1-yl)-2-(1H-pyrrol-1-yl)benzoate] | < 10 | – |
| Cc1ccc(S(=O)(=O)n2ccc3cc(OC4CN(c5cccc(C(=O)O)c5-n5cccc5)C4)ccc32)cc1 [Example 305, 3-(3-((1-p-tolylsulfonyl-1H-indol-5-yl)oxy)azetidin-1-yl)-2-(1H-pyrrol-1-yl)benzoic acid] | < 10 | – |
| COCCOc1ccc(OC2CN(c3cccc(C(=O)OC)c3-n3cccc3)C2)cc1OCCOC [Example 306, Methyl 3-(3-(3,4-bis(2-methoxyethoxy)phenoxy)azetidin-1-yl)-2-(1H-pyrrol-1-yl)benzoate] | < 10 | – |
| COCCOc1ccc(OC2CN(c3cccc(C(=O)O)c3-n3cccc3)C2)cc1OCCOC [Example 307, 3-(3-(3,4-bis(2-methoxyethoxy)phenoxy)azetidin-1-yl)-2-(1H-pyrrol-1-yl)benzoic acid] | < 10 | – |
| COC(=O)c1cccc(N2CC(Oc3ccc(OC4CCCCO4)cc3)C2)c1-n1cccc1 (centres unmarked) [Example 308, Methyl 3-(3-(4-((tetrahydro-2H-pyran-2-yl)oxy)phenoxy)azetidin-1-yl)-2-(1H-pyrrol-1-yl)benzoate] | < 10 | – |

| SMILES | inhibition at 50 µM [1] [%] | further results |
| --- | --- | --- |
| CNCCOc1ccc(OC2CN(c3cccc(C(=O)OC)c3-n3cccc3)C2)cc1 [Example 309, Methyl 3-(3-(4-(2-(methylamino)ethoxy)phenoxy)azetidin-1-yl)-2-(1H-pyrrol-1-yl)benzoate] | 10 to 30 | – |
| COC(=O)c1cccc(N2CC(Oc3ccc(OCCN)cc3)C2)c1-n1cccc1 [Example 310, Methyl 3-(3-(4-(2-aminoethoxy)phenoxy)azetidin-1-yl)-2-(1H-pyrrol-1-yl)benzoate] | < 10 | – |
| COC(=O)c1cccc(N2CC(Oc3ccc(OCCN)c(OC)c3)C2)c1-n1cccc1 [Example 311, Methyl 3-(3-(4-(2-aminoethoxy)-3-methoxyphenoxy)azetidin-1-yl)-2-(1H-pyrrol-1-yl)benzoate] | 10 to 30 | – |
| COC(=O)c1cccc(N2CC(Oc3ccc(OCCNC(C)=O)cc3)C2)c1-n1cccc1 [Example 312, Methyl 3-(3-(4-(2-acetylaminoethoxy)phenoxy)azetidin-1-yl)-2-(1H-pyrrol-1-yl)benzoate] | 30 to 50 | – |
| CC(=O)NCCOc1ccc(OC2CN(c3cccc(C(=O)O)c3-n3cccc3)C2)cc1 [Example 313, 3-(3-(4-(2-acetylaminoethoxy)phenoxy)azetidin-1-yl)-2-(1H-pyrrol-1-yl)benzoic acid] | < 10 | – |
| COC(=O)c1cccc(C#CN(Cc2ccco2)S(=O)(=O)c2ccc(C)cc2)c1-n1cccc1 [Example 314, Methyl 3-(((N-(furan-2-yl-methyl)-4-methylphenyl)sulfonamido)ethynyl)-2-(1H-pyrrol-1-yl)benzoate] | < 10 | – |
| Cc1ccc(S(=O)(=O)N(C#Cc2cccc(C(=O)O)c2-n2cccc2)Cc2ccco2)cc1 [Example 315, Lithium 3-(((N-(furan-2-yl-methyl)-4-methylphenyl)sulfonamido)ethynyl)-2-(1H-pyrrol-1-yl)benzoate] | – | inhibition at 50 µM: > 50% |
| COC(=O)c1cccc(C#CN(Cc2ccc3c(ccn3C)c2)S(=O)(=O)c2ccc(C)cc2)c1-n1cccc1 [Example 316, Methyl 3-(((4-methyl-N-((1-methyl-1H-indol-5-yl)methyl)phenyl)sulfonamido)ethynyl)-2-(1H-pyrrol-1-yl)benzoate] | < 10 | – |
| Cc1ccc(S(=O)(=O)N(C#Cc2cccc(C(=O)O)c2-n2cccc2)Cc2ccc3c(ccn3C)c2)cc1 [Example 317, Lithium 3-(((4-methyl-N-((1-methyl-1H-indol-5-yl)methyl)phenyl)sulfonamido)ethynyl)-2-(1H-pyrrol-1-yl)benzoate] | – | inhibition at 50 µM: 10 to 30% |
| COC(=O)c1cccc(C#CN(CC2CCN(C)CC2)S(=O)(=O)c2ccc(C)cc2)c1-n1cccc1 [Example 318, Methyl 3-(((4-methyl-N-((1-methylpiperidin-4-yl)methyl)phenyl)sulfonamido)ethynyl)-2-(1H-pyrrol-1-yl)benzoate] | > 50 | – |
| Cc1ccc(S(=O)(=O)N(C#Cc2cccc(C(=O)O)c2-n2cccc2)CC2CCN(C)CC2)cc1 [Example 319, Lithium 3-(((4-methyl-N-((1-methylpiperidin-4-yl)methyl)phenyl)sulfonamido)ethynyl)-2-(1H-pyrrol-1-yl)benzoate] | – | inhibition at 50 µM: > 50% |
| COC(=O)c1cccc(C#CN(Cc2ccccc2)S(=O)(=O)c2csc3ccccc23)c1-n1cccc1 [Example 320, Methyl 3-((N-benzylbenzo[b]thiophen-3-sulfonamido)ethynyl)-2-(1H-pyrrol-1-yl)benzoate] | < 10 | – |
| O=C(O)c1cccc(C#CN(Cc2ccccc2)S(=O)(=O)c2csc3ccccc23)c1-n1cccc1 [Example 321, Lithium 3-((N-benzylbenzo[b]thiophen-3-sulfonamido)ethynyl)-2-(1H-pyrrol-1-yl)benzoate] | – | inhibition at 50 µM: < 10% |
| COC(=O)c1cccc(C#CN(Cc2ccccc2)S(=O)(=O)c2cccs2)c1-n1cccc1 [Example 322, Methyl 3-((N-benzylthiophen-2-sulfonamido)ethynyl)-2-(1H-pyrrol-1-yl)benzoate] | 10 to 30 | – |
| O=C(O)c1cccc(C#CN(Cc2ccccc2)S(=O)(=O)c2cccs2)c1-n1cccc1 [Example 323, Lithium 3-((N-benzylthiophen-2-sulfonamido)ethynyl)-2-(1H-pyrrol-1-yl)benzoate] | – | inhibition at 50 µM: < 10% |
| COC(=O)c1cccc(C#CN(Cc2ccccc2F)S(=O)(=O)c2cccs2)c1-n1cccc1 [Example 324, Methyl 3-((N-(2-fluorobenzyl)thiophen-2-sulfonamido)ethynyl)-2-(1H-pyrrol-1-yl)benzoate] | 10 to 30 | – |
| O=C(O)c1cccc(C#CN(Cc2ccccc2F)S(=O)(=O)c2cccs2)c1-n1cccc1 [Example 325, Lithium 3-((N-(2-fluorobenzyl)thiophen-2-sulfonamido)ethynyl)-2-(1H-pyrrol-1-yl)benzoate] | – | inhibition at 50 µM: 30 to 50% |
